Experimental data as given in patent publication US20220380342A1, “BIPHENYL DERIVATIVES FOR BLOCKING PD-1/PD-L1 INTERACTION, PREPARATION METHOD THEREFOR AND USE THEREOF” (Abbisko Therapeutics Co., Ltd., priority 2019, published 2022).

Tests used:
[1] = target: T1, interaction between PD-1 and PD-L1 expressed on cell surfaces (Jurkat/NF-κB-luc/PD1 cells cocultured with Raji-PD-L1 cells) (Homo sapiens, UniProt Q9NZQ7); assay: Jurkat reporter gene cellular assay; type: cell-based; details: OKT3 1 μg/mL stimulation, 6 hrs, activation fold vs DMSO
T1 construct: expressed in transfected cells; host or cells: Raji cells (PD-L1); Jurkat cells (PD-1, NF-κB-luc reporter)
Experimental: The effect of compounds of the examples of the present invention on the interaction between PD-1 and PD-L1 expressed on cell surfaces, and the related influence on T cell functions, were determined by a Jurkat reporter gene cellular assay.
Briefly, the reporter gene plasmid of NF-κB-luc and the plasmid of human PD-1 were transfected into Jurkat cells to establish a stably transfected cell line capable of stably expressing both PD-1 and NF-κB-Luc reporter genes; the expression level of PD-1 on the cell surface was confirmed by flow cytometry; and the expression of the reporter gene was confirmed via the response of the reporter gene stimulated by OKT-3 and Raji cells.
In addition, the plasmid of human PD-L1 was transfected into Raji cells to obtain a cell line capable of stably expressing PD-L1. Jurkat/NF-κB-luc/PD1 cells and Raji-PD-L1 cells were then cocultured and stimulated with OKT-3. On this basis, the compounds were added, and the enhancement of the signal pathway of T cell activation by the inhibitory effect of the compounds on the interaction between PD-1 and PD-L1 was evaluated by readings of reporter gene responses. The specific experimental process was as follows:
1) 30 μL of compound or antibody solution was added to each well of a white 96-well plate (Corning, 3610) at different diluted concentrations, and 10 μL of OKT3 (Biolegend, 317326) was then added (the final concentration of OKT3: 1 μg/mL);
2) 20 μL of Raji-PD-L1 cell suspension was added to each well with 5*10^4 cells for each well, and was incubated in an incubator for 20 min;
3) 20 μL of Jurkat/NF-Kb-luc/PD-1 cell suspension was added to each well with 5*10^4 cells for each well, and was well mixed, and 6 hrs later, Bright-glo (Promega, E2620) was applied and plates were read on Envision;
4) The reading of each well treated with the compound was compared with the reading of each well treated with DMSO to obtain the activation fold of the compound; and
5) EC50 values of compounds of the examples of the present invention were determined by non-linear regression analysis of activation folds at different compound concentrations.

[2] = target: T2, interaction between PD-1 and PD-L1 (Homo sapiens, UniProt Q9NZQ7); assay: PD1-PDL1 HTRF binding activity test; details: Cisbio PD-1/PD-L1 binding assay kit; percent inhibition vs DMSO
T2 construct: purchased Cisbio 64ICP01PEG or 64ICP01PEH
Experimental: The effect of compounds of the examples of the present invention on the interaction between PD-1 and PD-L1 was determined by the PD-1/PD-L1 binding assay kit from Cisbio (#64ICP01PEG or 64ICP01PEH). The detailed experimental process was as follows:
1) Pre-diluted compound solution, 4 μL of Tag1-PD-L1 and 4 μL of Tag2-PD1 were added to each well of a 384-well plate;
2) After the mixture was incubated at room temperature for 15 min, 5 μL of anti-Tag1-Eu3+ antibody and 5 μL of anti-Tag2-XL665 antibody were then added;
3) After incubated for 2 hrs at room temperature or overnight at 4° C., plates were read on Envision of Perkin Elmer; and readings at 665 nm and 620 nm were recorded, and the ratio of the two readings was taken as a reading for each well;
4) The reading of each well after compound treatment was compared with the reading of DMSO treated wells to obtain the percent inhibition of the compound; and
5) IC50 values of compounds of the examples of the present invention were determined by non-linear regression analysis of percent inhibition at different compound concentrations.

T1 sequence (Q9NZQ7 19-290): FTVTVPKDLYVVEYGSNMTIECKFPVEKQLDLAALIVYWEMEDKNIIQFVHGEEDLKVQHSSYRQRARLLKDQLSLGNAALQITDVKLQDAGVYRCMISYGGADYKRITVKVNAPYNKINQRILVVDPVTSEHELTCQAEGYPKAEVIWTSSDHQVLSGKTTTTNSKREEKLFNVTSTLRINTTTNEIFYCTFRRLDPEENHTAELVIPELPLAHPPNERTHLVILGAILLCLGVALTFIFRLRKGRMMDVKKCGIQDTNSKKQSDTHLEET
T2 sequence (Q9NZQ7 19-238 limits assumed): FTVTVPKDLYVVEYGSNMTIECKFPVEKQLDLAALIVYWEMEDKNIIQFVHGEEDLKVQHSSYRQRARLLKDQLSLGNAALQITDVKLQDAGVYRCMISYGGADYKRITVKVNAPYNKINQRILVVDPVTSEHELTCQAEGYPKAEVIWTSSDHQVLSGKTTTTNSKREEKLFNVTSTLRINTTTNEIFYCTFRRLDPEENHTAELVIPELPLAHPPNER

Row | Compound | EC50 [1] [nM] | IC50 [2] [nM]
1 | CCOC(=O)[C@H](CO)NCc1cnc(C(=O)Nc2cccc(-c3cccc(NC(=O)c4cc(C5CC5)c(CNCCO)cn4)c3C)c2C)cc1C1CC1 [Example 37-1, Ethyl ((4-cyclopropyl-6-((3′-(4-cyclopropyl-5-(((2-hydroxyethyl)amino)methyl)picolinamido)-2,2′-dimethyl-[1,1′-biphenyl]-3-yl)carbamoyl)pyridin-3-yl)methyl)-L-serinate] | 265 | 5.58
2 | Cc1c(NC(=O)c2cc(C3CC3)c(CNCCO)cn2)cccc1-c1cccc(NC(=O)c2cc(C3CC3)c(CN[C@@H](CO)C(=O)O)cn2)c1C [Example 37, ((4-cyclopropyl-6-((3′-(4-cyclopropyl-5-(((2-hydroxyethyl)amino)methyl)picolinamido)-2,2′-dimethyl-[1,1′-biphenyl]-3-yl)carbamoyl)pyridin-3-yl)methyl)-L-serine] | 25.2 | 0.95
3 | Cc1c(NC(=O)c2cc(C3CC3)c(CN3CC[C@H](O)C3)cn2)cccc1-c1cccc(NC(=O)c2cc(C3CC3)c(CN3CCCC[C@H]3C(=O)O)cn2)c1C [Example 14, (S)-1-((4-cyclopropyl-6-((3′-(4-cyclopropyl-5-(((S)-3-hydroxypyrrolidin-1-yl)methyl)picolinamido)-2,2′-dimethyl-[1,1′-biphenyl]-3-yl)carbamoyl)pyridin-3-yl)methyl)piperidine-2-carboxylic acid] | 8.2 | 1.76
4 | Cc1c(NC(=O)c2cc(C3CC3)c(CNC3CCOCC3)cn2)cccc1-c1cccc(NC(=O)c2cc(C3CC3)c(CN[C@H](CO)C(=O)O)cn2)c1C [Example 51, ((4-cyclopropyl-6-((3′-(4-cyclopropyl-5-(((tetrahydro-2H-pyran-4-yl)amino)methyl)picolinamido)-2,2′-dimethyl-[1,1′-biphenyl]-3-yl)carbamoyl)pyridin-3-yl)methyl)-D-serine] | 87.1 | 2.05
5 | CCOC(=O)[C@@H](CO)NCc1cnc(C(=O)Nc2cccc(-c3cccc(NC(=O)c4cc(C5CC5)c(CN5CC[C@@H](O)C5)cn4)c3C)c2C)cc1C1CC1 [Example 53-1, Ethyl ((4-cyclopropyl-6-((3′-(4-cyclopropyl-5-(((R)-3-hydroxypyrrolidin-1-yl)methyl)picolinamido)-2,2′-dimethyl-[1,1′-biphenyl]-3-yl)carbamoyl)pyridin-3-yl)methyl)-D-serinate] | 258 | 5.77
6 | Cc1c(NC(=O)c2cc(C3CC3)c(CN[C@@H](C)CO)cn2)cccc1-c1cccc(NC(=O)c2cc(C3CC3)c(CN[C@H](CO)C(=O)O)cn2)c1C [Example 39, ((4-cyclopropyl-6-((3′-(4-cyclopropyl-5-((((S)-1-hydroxypropan-2-yl)amino)methyl)picolinamido)-2,2′-dimethyl-[1,1′-biphenyl]-3-yl)carbamoyl)pyridin-3-yl)methyl)-D-serine] | 36 | 1.89
7 | Cc1c(NC(=O)c2cc(C3CC3)c(CN[C@H]3CCC[C@@H]3O)cn2)cccc1-c1cccc(NC(=O)c2cc(C3CC3)c(CN3CCCC[C@H]3C(=O)O)cn2)c1C [Example 4, (S)-1-((4-cyclopropyl-6-((3′-(4-cyclopropyl-5-((((1S,2S)-2-hydroxycyclopentyl)amino)methyl)picolinamido)-2, 2′-dimethyl-[1,1′-biphenyl]-3-yl)carbamoyl)pyridin-3-yl)methyl)piperidine-2-carboxylic acid] | 3.2 | 1.02
8 | Cc1c(NC(=O)c2cc(C3CC3)c(CN[C@H]3CCC[C@@H]3O)cn2)cccc1-c1cccc(NC(=O)c2cc(C3CC3)c(CN[C@H](CO)C(=O)O)cn2)c1C [Example 40, ((4-cyclopropyl-6-((3′-(4-cyclopropyl-5-((((1S,2S)-2-hydroxycyclopentyl)amino)methyl)picolinamido)-2,2′-dimethyl-[1,1′-biphenyl]-3-yl)carbamoyl)pyridin-3-yl)methyl)-D-serine] | 39.2 | 1.68
